Patent US20080207766A1, “METHODS AND COMPOSITIONS FOR TREATING AT LEAST ONE UPPER GASTROINTESTINAL SYMPTOM” (AGI Therapeutics Research Ltd., priority 2007, published 2008)
Structures can show the parent of a compound that is named as a salt.

What was measured:
[1] = system: patients with functional diarrhea; experiment: Clinical study, randomized double-blind placebo-controlled forced dose escalation, 12 weeks; format: in vivo, human
Description: While functional diarrhea is a condition dominated by altered lower bowel function associated with chronic diarrhea, it is also associated with upper gastrointestinal related symptoms such as nausea. For instance, patients suffering from similar lower bowel functional conditions such as IBS ([…]) have a reported incidence of nausea of 32%-other conditions also have relatively high baseline incidences of nausea, i.e., functional dyspepsia 39%, oesophagitis 17%, duodenal ulcer 34%, gastric ulcer 39%, gallstone disease 28%, alcohol related dyspepsia 37%, and gastric cancer 48%. […], ABC of the Upper Gastrointestinal Tract Anorexia, Nausea, Vomiting and Pain, 323 BMJ (8 Dec. 2001). […] Eighty-two patients (both male and female) meeting ROME II criteria (modified) for Functional Diarrhea were randomized in the study. Using an intent-to-treat analysis and the entire 12 weeks of dose-escalation therapy, the incidence of nausea in the placebo group was 20%, indicating a relatively high baseline of nausea for that condition.

[2] = Pharmacokinetics of oral conventional formulation in adults (Young et al.); format: in vivo, human
Protocol: Bear et al., Am. J. Physiol., 186, 180-86 (1956). […] Young et al., Clinical Therapeutics, 23(4) (2001). […] The typical dose used for treating hypertensive subjects is about 25 mg/day, and is dosed using conventional formulations.

[3] = cited from earlier work
[4] = expected from Young et al. data, conventional formulation
[5] = 2.5 mg dose, conventional formulation, adults
[6] = 7.5 mg dose, conventional formulation, adults

SMILES: CNC1(C)C2CCC(C2)C1(C)C (racemic) [mecamylamine]
- changes in blood pressure ([1]; FIGS. 1 and 2, over the course of the study): no clinically significant changes
- incidence of nausea ([1]; intent-to-treat, entire 12 weeks, once daily 2 then 4 then 6 mg/day, placebo 20%): 9%
- expected peak plasma concentration ([2]; about 25 mg/day dose for hypertensive subjects, conventional formulations): about 78.9 ng/mL
- 24 hour plasma concentration level as share of peak plasma concentration [2, 4]: less than 25%
- time for which about 50% of the peak plasma concentration is maintained [2, 4]: about 14 hours

SMILES: CNC1(C)C2CCC(C2)C1(C)C (stereo not shown) [mecamylamine hydrochloride, N-2,3,3-tetramethylbicyclo[2.2.1]heptan-2-amine hydrochloride]
- maximum plasma concentration (Cmax) [3, 5]: about 7.89 ng/mL
- time to achieve the highest plasma concentration (Tmax) [3, 5]: 3.11 h
- Cmax [3, 6]: 23.68 ng/mL
- Tmax [3, 6]: 3.04 h
- absorption from the gastrointestinal tract ([3]; dosed orally, conventional formulations (Bear et al.)): nearly completely and rapidly absorbed
